Assay results: PubChem BioAssay AID248 (DTP/NCI, 2004)
Several values for one entry are separate records, joined by “and”; a condition that tells them apart may be missing. Equal values may be shown once. Toxic doses and inconclusive results are not listed. Cut-off read from the data, not from the text of the source: active = T/C of 150% or more; inactive = T/C below 125%.

System: L1210 leukemia ip in BDF1 mice, survival T/C
Experiment: NCI In Vivo Anticancer Drug Screen. Data for tumor model L1210 Leukemia (intraperitoneal) in B6D2F1 (BDF1) mice
Settings: higher = longer survival
Summary of the method: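 Tumor was transplanted into mice, which were then dosed with test compound or vehicle alone. Survival was recorded for each group, and the treated figure was expressed relative to the control figure.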

[1] = endpoint: mean survival time, dose: 50.0 mg/kg/injection, schedule: Q01DX009 (ip), vehicle: saline
[2] = endpoint: mean survival time, dose: 100.0 mg/kg/injection, schedule: Q01DX009 (ip), vehicle: saline
[3] = endpoint: mean survival time, dose: 200.0 mg/kg/injection, schedule: Q01DX009 (ip), vehicle: saline
[4] = endpoint: mean survival time, dose: 100.0 mg/kg/injection, schedule: Q01DX001 (ip), vehicle: saline
[5] = endpoint: mean survival time, dose: 200.0 mg/kg/injection, schedule: Q01DX001 (ip), vehicle: saline
[6] = endpoint: mean survival time, dose: 100.0 mg/kg/injection, schedule: Q01DX009 (ip), vehicle: Klucel (hydroxypropylcellulose) (HPC)
[7] = endpoint: mean survival time, dose: 200.0 mg/kg/injection, schedule: Q01DX009 (ip), vehicle: Klucel (hydroxypropylcellulose) (HPC)
[8] = endpoint: mean survival time, dose: 400.0 mg/kg/injection, schedule: Q01DX009 (ip), vehicle: Klucel (hydroxypropylcellulose) (HPC)

Measured: T/C

CC(C)(C)OC(=O)NC(CC(N)=O)C(=O)ON1C(=O)CCC1=O (configuration not stated)
inactive: endpoint: mean survival time, dose: 25.0 mg/kg/injection, schedule: Q01DX009 (ip), vehicle: saline 95 % of control | [1] 99 % of control | [2] 86 % of control | endpoint: mean survival time, dose: 100.0 mg/kg/injection, schedule: Q04DX002 (ip), vehicle: saline 108 % of control | [3] 94 % of control and 99 % of control | endpoint: mean survival time, dose: 200.0 mg/kg/injection, schedule: Q04DX002 (ip), vehicle: saline 86 % of control | endpoint: mean survival time, dose: 400.0 mg/kg/injection, schedule: Q01DX009 (ip), vehicle: saline 105 % of control | endpoint: mean survival time, dose: 400.0 mg/kg/injection, schedule: Q04DX002 (ip), vehicle: saline 105 % of control

CCOC(=O)C(CCC(c1ccc(OC)cc1)c1ccc(OC)cc1)C(=O)OCC
inactive: [4] 98 % of control | [5] 93 % of control | endpoint: mean survival time, dose: 400.0 mg/kg/injection, schedule: Q01DX001 (ip), vehicle: saline 94 % of control

COC(=O)CCc1nc(N)nc(N)n1
inactive: endpoint: mean survival time, dose: 50.0 mg/kg/injection, schedule: Q01DX001 (ip), vehicle: carboxymethylcellulose (CMC) 98 % of control | endpoint: mean survival time, dose: 100.0 mg/kg/injection, schedule: Q01DX001 (ip), vehicle: carboxymethylcellulose (CMC) 90 % of control | endpoint: mean survival time, dose: 200.0 mg/kg/injection, schedule: Q01DX001 (ip), vehicle: carboxymethylcellulose (CMC) 101 % of control | endpoint: mean survival time, dose: 400.0 mg/kg/injection, schedule: Q01DX001 (ip), vehicle: carboxymethylcellulose (CMC) 90 % of control

NC(=O)C1=Cc2cc(Cl)cc(Cl)c2OC1
inactive: endpoint: mean survival time, dose: 100.0 mg/kg/injection, schedule: Q01DX009 (ip), vehicle: saline with Tween-80 93 % of control | endpoint: mean survival time, dose: 200.0 mg/kg/injection, schedule: Q01DX009 (ip), vehicle: saline with Tween-80 93 % of control | endpoint: mean survival time, dose: 400.0 mg/kg/injection, schedule: Q01DX009 (ip), vehicle: saline with Tween-80 98 % of control

CCCCS/C=C\SCCCC
inactive: endpoint: mean survival time, dose: 100.0 mg/kg/injection, schedule: Q04DX002 (sc), vehicle: olive oil, sesame oil, peanut oil 107 % of control | endpoint: mean survival time, dose: 200.0 mg/kg/injection, schedule: Q04DX002 (sc), vehicle: olive oil, sesame oil, peanut oil 104 % of control | endpoint: mean survival time, dose: 400.0 mg/kg/injection, schedule: Q04DX002 (sc), vehicle: olive oil, sesame oil, peanut oil 104 % of control

O=S1(=O)C=C(Br)C1
inactive: endpoint: mean survival time, dose: 100.0 mg/kg/injection, schedule: Q04DX002 (ip), vehicle: Klucel (hydroxypropylcellulose) (HPC) 94 % of control and 106 % of control | endpoint: mean survival time, dose: 200.0 mg/kg/injection, schedule: Q04DX002 (ip), vehicle: Klucel (hydroxypropylcellulose) (HPC) 106 % of control

Cc1c(CBr)c2ccccc2[nH]c1=O
inactive: endpoint: mean survival time, dose: 100.0 mg/kg/injection, schedule: Q01DX001 (ip), vehicle: other 97 % of control | endpoint: mean survival time, dose: 200.0 mg/kg/injection, schedule: Q01DX001 (ip), vehicle: other 108 % of control

CCc1ccc(C(O)C(=O)O)cc1 (configuration not stated)
inactive: endpoint: mean survival time, dose: 75.0 mg/kg/injection, schedule: Q01DX001 (ip), vehicle: acetone 90 % of control | endpoint: mean survival time, dose: 150.0 mg/kg/injection, schedule: Q01DX001 (ip), vehicle: acetone 94 % of control

C=CCc1cc(CN(CCOCC)Cc2cc(CC=C)cc(OC)c2O)c(O)c(OC)c1
inactive: endpoint: mean survival time, dose: 12.5 mg/kg/injection, schedule: Q04DX003 (ip), vehicle: Klucel (hydroxypropylcellulose) (HPC) 97 % of control | endpoint: mean survival time, dose: 25.0 mg/kg/injection, schedule: Q04DX003 (ip), vehicle: Klucel (hydroxypropylcellulose) (HPC) 95 % of control | endpoint: mean survival time, dose: 50.0 mg/kg/injection, schedule: Q04DX003 (ip), vehicle: Klucel (hydroxypropylcellulose) (HPC) 94 % of control

CC(=O)OC1C(O)C(C)OC(OC2C(OC(=O)C3CCC4C(C3)OC3(CC(OC(=O)/C=C/c5ccccc5)C(C)CO3)C43CO3)OC(C)C(O)C2OC(C)=O)C1O (configuration not stated)
inactive: endpoint: median survival time, dose: 0.5 mg/kg/injection, schedule: Q01DX009 (ip), vehicle: distilled water + Tween-80 92 % of control | endpoint: median survival time, dose: 1.0 mg/kg/injection, schedule: Q01DX009 (ip), vehicle: distilled water + Tween-80 95 % of control | endpoint: median survival time, dose: 2.0 mg/kg/injection, schedule: Q01DX009 (ip), vehicle: distilled water + Tween-80 95 % of control | endpoint: median survival time, dose: 4.0 mg/kg/injection, schedule: Q01DX009 (ip), vehicle: distilled water + Tween-80 104 % of control | endpoint: median survival time, dose: 8.0 mg/kg/injection, schedule: Q01DX009 (ip), vehicle: distilled water + Tween-80 107 % of control | endpoint: median survival time, dose: 16.0 mg/kg/injection, schedule: Q01DX009 (ip), vehicle: distilled water + Tween-80 115 % of control | endpoint: median survival time, dose: 32.0 mg/kg/injection, schedule: Q01DX009 (ip), vehicle: distilled water + Tween-80 104 % of control

O=S(=O)(OCCCl)OCCCl
inactive: endpoint: mean survival time, dose: 25.0 mg/kg/injection, schedule: Q01DX010 (ip), vehicle: olive oil, sesame oil, peanut oil 100 % of control | endpoint: mean survival time, dose: 37.5 mg/kg/injection, schedule: Q01DX010 (ip), vehicle: olive oil, sesame oil, peanut oil 102 % of control | endpoint: mean survival time, dose: 50.0 mg/kg/injection, schedule: Q01DX010 (ip), vehicle: olive oil, sesame oil, peanut oil 97 % of control

C#CC(OC(=O)NC(CCSC)C(=O)OC)(c1ccccc1)c1ccccc1 (configuration not stated)
inactive: endpoint: mean survival time, dose: 100.0 mg/kg/injection, schedule: Q01DX001 (ip), vehicle: saline with Tween-80 99 % of control | endpoint: mean survival time, dose: 200.0 mg/kg/injection, schedule: Q01DX001 (ip), vehicle: saline with Tween-80 99 % of control

CC[CH2][Pb]([CH2]CC)([CH2]CC)[O]C(=O)C(Cl)(Cl)Cl
inactive: endpoint: mean survival time, dose: 3.12 mg/kg/injection, schedule: Q01DX009 (ip), vehicle: Klucel (hydroxypropylcellulose) (HPC) 108 % of control | endpoint: mean survival time, dose: 3.12 mg/kg/injection, schedule: Q04DX002 (ip), vehicle: Klucel (hydroxypropylcellulose) (HPC) 105 % of control | endpoint: mean survival time, dose: 6.25 mg/kg/injection, schedule: Q01DX009 (ip), vehicle: Klucel (hydroxypropylcellulose) (HPC) 93 % of control | endpoint: mean survival time, dose: 6.25 mg/kg/injection, schedule: Q04DX002 (ip), vehicle: Klucel (hydroxypropylcellulose) (HPC) 93 % of control | endpoint: mean survival time, dose: 12.5 mg/kg/injection, schedule: Q01DX009 (ip), vehicle: Klucel (hydroxypropylcellulose) (HPC) 101 % of control | endpoint: mean survival time, dose: 12.5 mg/kg/injection, schedule: Q04DX002 (ip), vehicle: Klucel (hydroxypropylcellulose) (HPC) 97 % of control and 99 % of control

Cc1ccc(NC(=S)N2CCCCC2C)cc1C (configuration not stated)
inactive: [6] 98 % of control | [7] 101 % of control | [8] 91 % of control

CCCCOC(=O)c1[nH]cnc1N
inactive: [4] 114 % of control | [5] 110 % of control

CCN(C(=O)c1ccc(Cl)cc1Cl)c1ccccc1C
inactive: [6] 98 % of control | endpoint: mean survival time, dose: 100.0 mg/kg/injection, schedule: Q04DX003 (ip), vehicle: Klucel (hydroxypropylcellulose) (HPC) 97 % of control | [7] 96 % of control | endpoint: mean survival time, dose: 200.0 mg/kg/injection, schedule: Q04DX003 (ip), vehicle: Klucel (hydroxypropylcellulose) (HPC) 108 % of control | [8] 101 % of control | endpoint: mean survival time, dose: 400.0 mg/kg/injection, schedule: Q04DX003 (ip), vehicle: Klucel (hydroxypropylcellulose) (HPC) 98 % of control

CCSc1nc(C=O)c(Cc2ccc(Br)cc2)c(=O)[nH]1
inactive: endpoint: mean survival time, dose: 100.0 mg/kg/injection, schedule: Q04DX003 (ip), vehicle: saline with Tween-80 106 % of control | endpoint: mean survival time, dose: 200.0 mg/kg/injection, schedule: Q04DX003 (ip), vehicle: saline with Tween-80 103 % of control | endpoint: mean survival time, dose: 400.0 mg/kg/injection, schedule: Q04DX003 (ip), vehicle: saline with Tween-80 106 % of control

CCN(CC)Cc1c(C)[nH]c2ccc(N(C)C)cc2c1=O
inactive: [1] 101 % of control | [2] 106 % of control | endpoint: mean survival time, dose: 100.0 mg/kg/injection, schedule: Q04DX003 (ip), vehicle: saline 115 % of control | [3] 92 % of control | endpoint: mean survival time, dose: 200.0 mg/kg/injection, schedule: Q04DX003 (ip), vehicle: saline 109 % of control
